Calls of active or inactive are those of the source. No cut-off for these calls is given here.
Molecular target: Mitogen-activated protein kinase; ERK1/ERK2 (Homo sapiens) (UniProt P27361+P28482)
Assay: Inhibition of ERK1/2 in human HeLa cells assessed as reduction in EGF-induced ERK1/2 phosphorylation level at T202/Y204 residue at 1 uM pre incubated for 1 hr followed by EGF stimulation and measured after 17 mins by Western blot analysis
Format: cell-based
Details: time 77.0 min

Chain of Mitogen-activated protein kinase; ERK1/ERK2 (Homo sapiens) (P27361 whole entry, looked up): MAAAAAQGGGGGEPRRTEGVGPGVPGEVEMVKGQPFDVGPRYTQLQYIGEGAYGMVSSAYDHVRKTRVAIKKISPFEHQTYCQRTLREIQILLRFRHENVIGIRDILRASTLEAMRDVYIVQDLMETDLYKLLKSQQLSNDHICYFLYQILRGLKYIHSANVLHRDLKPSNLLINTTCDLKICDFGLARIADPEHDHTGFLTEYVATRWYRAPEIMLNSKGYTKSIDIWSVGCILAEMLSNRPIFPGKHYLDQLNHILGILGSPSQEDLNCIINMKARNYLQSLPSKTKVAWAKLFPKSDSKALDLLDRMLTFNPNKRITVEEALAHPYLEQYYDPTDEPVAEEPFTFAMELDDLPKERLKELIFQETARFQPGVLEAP
Chain of Mitogen-activated protein kinase; ERK1/ERK2 (Homo sapiens) (P28482 whole entry, looked up): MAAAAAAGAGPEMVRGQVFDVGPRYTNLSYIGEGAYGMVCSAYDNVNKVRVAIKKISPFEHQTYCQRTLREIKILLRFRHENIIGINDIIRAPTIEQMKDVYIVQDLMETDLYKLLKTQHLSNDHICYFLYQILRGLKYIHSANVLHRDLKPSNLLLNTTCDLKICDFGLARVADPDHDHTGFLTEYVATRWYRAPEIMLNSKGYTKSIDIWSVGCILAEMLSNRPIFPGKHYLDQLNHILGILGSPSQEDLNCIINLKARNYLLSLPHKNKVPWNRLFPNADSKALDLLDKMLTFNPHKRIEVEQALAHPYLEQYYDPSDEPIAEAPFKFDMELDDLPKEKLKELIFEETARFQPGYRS

inhibition: Active
Structure (SMILES): O=C(NOCC1CC1)c1ccc(F)c(F)c1Nc1ccc(I)cc1Cl
